Our source for the IC50 and MIC50 values is ChEMBL document CHEMBL3739409, “Bioactive ent-Pimarane and ent-Abietane Diterpenoids from the Whole Plants of Chloranthus henryi” (J Nat Prod, 2015).

A word on the IC50: it is the concentration at which inhibition is half-maximal. Broadly, the MIC50 is an inhibitory concentration at the 50% level, which refers to growth in some studies and to a panel of isolates in others.

Test [1] deals with Candida albicans. The test is described as follows: Antifungal activity against Candida albicans SC5314 assessed as inhibition of yeast to hyphae conversion after 4 hrs by microscopic analysis. The test is classed as functional, organism-based. The conditions noted are these: SC5314, 4 h.
The subject of test [2] is Candida albicans. The test is described as follows: Antifungal activity against Candida albicans SC5314 by broth microdilution method. The test is classed as functional. (Dilution methods test growth across graded concentrations, often in twofold steps.)

Molecules are shown by their SMILES. In brackets after ≈: the same amount, converted by molar mass.

Regarding `CO[C@@]1(C(C)C)C=C2C(=O)C[C@@H]3C(C)(C)[C@H](O)CC[C@@]3(C)[C@@H]2C[C@H]1O`, the IC50 in the test on Candida albicans [1] was 334 µM. Further, the MIC50 against Candida albicans [2] worked out at 731 µM (≈ 256 µg/mL).
In the test with Candida albicans [2], `OC(Cn1cncn1)(Cn1cncn1)c1ccc(F)cc1F` [FLUCONAZOLE] returned an MIC50 of 1.6 µM (≈ 0.49 µg/mL).
With `C=CCc1ccc(O)c(-c2cc(CC=C)ccc2O)c1` [MAGNOLOL], in the test on Candida albicans [1], the half-maximal inhibitory concentration (IC50) amounted to 7.5 µM.
As for `C=C[C@]1(C)C=C2[C@@H](CC1)[C@]1(C)CC[C@@H](O)C(C)(C)[C@H]1C[C@@H]2O`, the concentration for half-maximal inhibition (IC50) in the test with Candida albicans [1] is 399 µM.
For the compound `CC(C)c1ccc2c(c1)[C@H](O)CC1C(C)(C)[C@@H](O)CC[C@]21C` (stereo partly drawn), the half-maximal inhibitory concentration (IC50) with Candida albicans [1] amounted to 739 µM.
Take `CC(C)c1ccc2c(c1)C(=O)CC1C(C)(C)[C@@H](O)CC[C@]21C` (stereo partly drawn): the 50% inhibitory concentration (IC50) with Candida albicans [1] turned out to be 97.3 µM. Moreover, the MIC50 against Candida albicans [2] came out at 427 µM (≈ 128 µg/mL).
